Earlier results, collected in US6346264B1, “Supplement for restoring growth hormone levels” (International Health Products and Services Ltd., priority 1999, dated 2002).
Read-outs that look alike come from different tables or passages of the source.

Legend:
hGH release = conditions: low doses in the region of 200 mg (Matteini)
[1] = after six months of usage, without exercise
[2] = 6 months, growth hormone deficient patients
[3] = 4 months, deficient adults
[4] = 202 patients, age 39-74, hGH injection

Compound	hGH release (hGH release)	average increase in lean muscle mass [1]	loss of fat [1]	increase in healing capacity [4]	individuals describing improvement in duration of penile erection [4]	individuals describing increase and improvement in sexual potency and frequency of sexual relations [4]	individuals with improved energy levels [4]	individuals with improved muscle strength [4]	IGF-1 levels (high frequency-low dose injections)	Insulin-like Growth Factor 1 (IGF-1) [2]	fat [2]	lean body mass [2]	metabolic rate [2]	plasma cholesterol [2]	IGF-1 levels [3]	fat [3]	muscle thickness [3]	renal plasma flow and glomerular filtration rates [3]
N=C(N)NCCC[C@H](N)C(=O)O [arginine]	can elevate hGH release																	
hGH: human growth hormone, medical name Somatotropin, produced in the anterior pituitary gland; available as injectable bio-synthetic product		8%	14.4%	71%	62%	75%	84%	88%	elevated	increase	reduction	increase	increased	lowered	normalized	reduced	increased	raised from subnormal levels to levels comparable for their age
